Laboratory results as given in PubChem BioAssay (NCI).
Values joined by “and” are separate entries in the source; they are usually repeats but may differ in a detail not shown here. Equal values may be shown once.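 Dose response: 5 concentrations. Exposure: 48 h. Format: 96-well plates. Endpoint: linear interpolation; highest concentration if not reached. GI50 = concentration required for 50% inhibition of growth. TGI: total growth inhibition.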

Columns and labels:
Experiment in all cases: NCI-60 cell line screen, 48 h
[1] = system: A498 renal
[2] = system: NCI/ADR-RES ovarian
[3] = system: HL-60(TB) leukemia
[4] = system: HS 578T breast
[5] = system: MDA-MB-231 breast
[6] = system: RXF 393 renal
[7] = system: PC-3 prostate
[8] = system: NCI-H226 lung
[9] = system: HCT-15 colon
[10] = system: NCI-H522 lung

Compound | TGI [1] | TGI [2] [µM] | TGI [3] [µM] | TGI [4] [µM] | TGI [5] | TGI [6] | TGI [7] | TGI [8] | TGI [9] | TGI [10] | GI50 [1] [µM] | GI50 [2] [µM] | GI50 [3] [µM] | GI50 [4] [µM] | GI50 [5] [µM] | GI50 [6] [µM] | GI50 [7] [µM] | GI50 [8] [µM] | GI50 [9] [µM] | GI50 [10] [µM]
CN(C)CCSc1cc(-c2ccccc2)c2ccccc2n1 | 33 µM | 31.5 | > 100 | 21.9 | 24 µM | 15.8 µM | 24.6 µM | 33.4 µM | 14.6 µM | 24.1 µM | – | – | – | – | – | – | – | – | – | –
CC(C)OC(=O)[C@H](C)NP(=O)(OC[C@H]1O[C@@H](n2ccc(=O)[nH]c2=O)[C@](C)(F)[C@@H]1O)Oc1ccccc1 (some centres undefined) | > 100 µM | > 100 | > 100 | > 100 | > 100 µM | > 100 µM | > 100 µM | > 100 µM | > 100 µM | > 100 µM | > 100 | > 100 | > 100 | > 100 | > 100 | > 100 | > 100 | > 100 | > 100 | > 100
COC(=O)c1ccc2c(c1)/C(=C\c1cc(Br)c(O)c(Br)c1)C(=O)N2 | 11 µM | > 25 | 14.6 | > 22.6 | > 25 µM | > 21.2 µM | > 25 µM | > 25 µM | > 25 µM | 19.3 µM | 3.48 | 15.7 | 4.97 | 4.75 | 6.83 | 6.06 | 7.68 | 14.6 | 5.47 | 4.73
COC(=O)c1cc2c(s1)-c1nccc3c1c(nc1ccccc13)C2=O | > 100 µM | > 100 | > 100 | > 100 | > 100 µM | > 100 µM | > 100 µM | > 100 µM | > 100 µM | > 100 µM | > 100 | > 100 | 12.3 | 28.2 | 28.6 | 29.8 | > 100 | > 100 | > 100 | 35
C#Cc1nc(Nc2cc(C)[nH]n2)c2ccccc2n1 | 0.3 µM | > 100 | 0.887 | > 46.2 | 0.424 µM | 0.301 µM | 1.4 µM | – | 0.474 µM | 1.99 µM | 0.139 | 0.402 | 0.265 | 0.318 | 0.203 | 0.136 | 0.317 | – | 0.205 | 0.476
S=c1[nH]c2c(Cl)c(Cl)c(Cl)c(Cl)c2[nH]1 | 46.5 µM | 46.5 | 13 | 69.4 | 47.9 µM | 35.4 µM | 77.6 µM | – | 53.5 µM | 3.71 µM | – | – | – | – | – | – | – | – | – | –
C/C(=N\NC(=S)N1CCCCCC1)c1ccccn1 | 2.59 µM and 1.57 µM | 3.32 | 0.185 | 3.85 | 5.31 µM and 9.96 µM | 2.05 µM and 0.658 µM | 2.9 µM and 2.61 µM | 3.62 µM and 5.35 µM | 1.99 µM and 4.43 µM | 0.623 µM and 1.39 µM | 0.163 | – | – | – | 0.147 | 0.117 | 0.183 | 0.245 | 0.0497 | 0.109
C[C@@]12CCC[C@@](C)(C(=O)O)C1CC[C@]13CC(=O)[C@](CO)(C1)[C@@H](O)CC32 (some centres undefined) | > 100 µM | > 100 | > 100 | > 100 | > 100 µM | > 100 µM | > 100 µM | > 100 µM | > 100 µM | > 100 µM | > 100 | > 100 | > 100 | > 100 | > 100 | > 100 | > 100 | > 100 | > 100 | > 100
CC(C)=CCc1cc(O)cc2c1OC(C=C(C)C)C1=C2C(=O)C2=C(C1=O)S(=O)(=O)CCN2 (centres undefined) | > 16.7 µM | > 16.7 | – | 13 | 8.27 µM | 12.5 µM | > 16.7 µM | > 16.7 µM | > 16.7 µM | 7.03 µM | 9.61 | > 16.7 | – | 3.15 | 2.99 | 3.02 | 5.09 | 4.75 | 5.8 | 2.94
Cc1ccc(Nc2oc(-c3ccccc3)nc2[P+](c2ccccc2)(c2ccccc2)c2ccccc2)cc1 | 2.36 µM | 3.1 | 1.39 | 3.99 | 2.17 µM | 2.34 µM | 2.01 µM | – | 2.16 µM | 1.79 µM | 0.697 | 1.48 | 0.425 | 1.41 | 0.788 | 0.864 | 0.585 | – | 0.64 | 0.45
CC12CCC3c4ccc(O)cc4CCC3C1C/C(=N\O)C2O (centres undefined) | > 100 µM | > 100 | > 100 | > 100 | > 100 µM | > 100 µM | > 100 µM | > 100 µM | > 100 µM | > 100 µM | – | – | – | – | – | – | – | – | – | –
CCc1ccc(/C=C/c2ccc(O)c3ncccc23)[n+](C)c1 | > 63 µM | > 100 | 73.2 | > 100 | > 100 µM | > 100 µM | > 100 µM | > 100 µM | > 100 µM | > 100 µM | 1.42 | > 100 | 18.8 | 51.2 | 57.9 | > 100 | 6.09 | > 22.4 | 40.9 | 2.3
CN(C)c1ncnc2c1ncn2CCn1cnc2c(N(C)C)ncnc21 | > 100 µM | > 100 | > 100 | > 100 | > 100 µM | > 100 µM | > 100 µM | – | > 100 µM | > 100 µM | – | – | – | – | – | – | – | – | – | –
COc1cc(/C=C/C(=O)c2cccc(-n3cc(-c4ccc(Cl)cc4)[nH]c3=O)c2)ccc1O | 16.7 µM | > 30.5 | > 24.3 | 26.9 | > 39.1 µM | 9.13 µM | 6.97 µM | 19.5 µM | 7.07 µM | 11 µM | 5.78 | 2.78 | 4.56 | 3.78 | 3.46 | 2.99 | 1.95 | 6.38 | 1.8 | 1.81
